# According to US10577357B2, “Inhibitors of LDLR-PCSK9 protein-protein interaction and methods of their use” (The Texas A&M University System, priority 2016, dated 2020):
# Biological target: T1, PCSK9 (Homo sapiens, UniProt Q8NBP7)
# T1 construct: host or cells: exogenous PCSK9 protein added to HepG2 cells
# Experiment: LDL-uptake assay (BODIPY-LDL) in HepG2 cells with added PCSK9
# Type: cell-based
# Conditions: inhibitors 50 μM preincubated with 10 μg/mL PCSK9 for 30 min, BODIPY-LDL 10 μg/mL, quintuplicate
# Experimental: LDL-uptake assay was performed in quintuplicate following a published procedure with some modifications. HepG2 cells were seeded into 96-well plate at a density of 3×10^4 cells/well in DMEM with 10% FBS medium (Sigma-Aldrich). After a period of 24 h, the medium was aspirated and cells were washed with PBS twice. Cells were treated with 10% lipoprotein-deficient serum (Gemini) in DMEM and incubated for another 24 h. After washing cells with PBS twice, cells were incubated 2 h with either 100 μL of Pep2-8 (30 μM), inhibitors at various concentrations (50 μM), or negative control (DMSO), which were preincubated with 10 μg/mL PCSK9 in 10% lipoprotein-deficient DMEM at 0.5% DMSO level for 30 min prior. A positive control was also performed, in a similar fashion but in the absence of PCSK9. BODIPY-LDL (10 μg/mL, Invitrogen) was added to each well and cells were incubated for another 3 h. Cells were washed three times with PBS, and fluorescent intensity was measured on Synergy H4 plate reader (Biotek) with excitation and emission wavelength at 488 and 520 nm, respectively.
# T1 sequence (Q8NBP7 153-692): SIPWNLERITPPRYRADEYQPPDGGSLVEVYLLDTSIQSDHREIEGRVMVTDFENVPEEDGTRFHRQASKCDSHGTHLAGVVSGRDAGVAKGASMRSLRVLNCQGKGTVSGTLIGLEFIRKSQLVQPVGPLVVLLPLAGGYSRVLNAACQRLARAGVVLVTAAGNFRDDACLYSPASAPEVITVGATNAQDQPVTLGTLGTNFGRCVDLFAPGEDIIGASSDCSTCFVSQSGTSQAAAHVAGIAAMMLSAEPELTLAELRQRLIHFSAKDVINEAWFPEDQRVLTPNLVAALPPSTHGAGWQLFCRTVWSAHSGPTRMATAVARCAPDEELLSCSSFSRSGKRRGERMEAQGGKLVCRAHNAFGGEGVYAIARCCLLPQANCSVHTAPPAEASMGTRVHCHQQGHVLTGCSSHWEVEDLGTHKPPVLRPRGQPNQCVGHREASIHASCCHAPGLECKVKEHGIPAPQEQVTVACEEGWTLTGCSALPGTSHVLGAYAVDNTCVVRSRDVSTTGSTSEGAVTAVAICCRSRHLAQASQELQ
# T1 sequence (Q8NBP7 31-152 partner limits assumed): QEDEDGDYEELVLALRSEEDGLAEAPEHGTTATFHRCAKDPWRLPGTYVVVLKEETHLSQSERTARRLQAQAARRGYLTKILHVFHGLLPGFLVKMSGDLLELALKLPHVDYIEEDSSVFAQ
row,Compound,activity at 50 µM
1,CC(C)C[C@H](C(=O)N1CCN([C@@H](CC(N)=O)C(=O)N[C@@H](CCCNC(=N)N)C(=O)NC2CCOC2=O)CC1)N1C(=O)N[C@@H](CC(=O)O)C1=O (stereo partly shown) [KB2234],8.7 ± 5.9%
2,CC(C)C[C@H](C(=O)N1CCN([C@@H](CC(N)=O)C(=O)N[C@@H](CCCNC(=N)N)C(=O)NCCC(=O)O)CC1)N1C(=O)N[C@@H](CC(=O)O)C1=O [KB2274],13.5 ± 4.3%
3,N=C(N)NCCC[C@@H](NC(=O)[C@H](CC(=O)O)N1CCN(C(=O)[C@H](CC(N)=O)N2C(=O)N[C@@H](CCC(N)=O)C2=O)CC1)C(=O)NCCC(=O)O [KB2275],8.6 ± 1.5%
4,CC(C)C[C@@H](C(=O)N[C@H](CCCNC(=N)N)C(=O)NCCC(=O)O)N1CCN(C(=O)[C@H](CS)N2C(=O)N[C@H](CC(N)=O)C2=O)CC1 [KB2276],19 ± 4.7%
